Data taken from US20170145000A1, “CANAGLIFLOZIN MONOHYDRATE AND ITS CRYSTALLINE FORMS, PREPARATION METHODS AND USES THEREOF” (Hangzhou Pushai Pharmaceutical Technology Co., Ltd., priority 2014, published 2017).

Columns and labels:
Assay type in all cases: physicochemical
[1] = storage in desiccator at room temperature and controlled relative humidity; details: room temperature
[2] = competitive stability test in water at room temperature with Monohydrate Form HI (XRPD); details: equal 250 mg samples of Form HI, known canagliflozin, Form A and Form hH1 mixed with 5 mL water, stirred 7 days
Protocol: The competitive stability test of canagliflozin Monohydrate Form HI of the present invention, the known canagliflozin, canagliflozin hemihydrate Form hH1 and canagliflozin Form A was performed in water at room temperature.
Conditions of the competitive stability test were as follows: take equal quantity (250 mg) samples of canagliflozin Monohydrate Form HI of the present invention, canagliflozin prepared in the preparation example 1, canagliflozin Form A prepared in the preparation example 2 and canagliflozin hemihydrate Form hH1 prepared in the preparation example 3 respectively, mix the samples with 5 mL of water to form a suspension. The suspension was stirred for 7 days at room temperature and then XRPD characterization analysis was performed.

[3] = competitive stability test in water at room temperature with Monohydrate Form HII (XRPD); details: equal 250 mg samples of Form HII, known canagliflozin, Form A and Form hH1 mixed with 3 mL water, stirred 7 days
Protocol: The competitive stability test among canagliflozin Monohydrate Form HII of the present invention, the known Canagliflozin, canagliflozin hemihydrate Form hH1 and canagliflozin Form A was performed in water at room temperature.
Conditions of the competitive stability test were as follows: take equal quantity (250 mg) samples of canagliflozin Monohydrate Form HII of the present invention, canagliflozin prepared in the preparation example 1 in the present invention, canagliflozin Form A prepared in the preparation example 2 in the present invention and canagliflozin hemihydrate Form hH1 prepared in the preparation 3 in the present invention, respectively, and mix the samples with 3 mL of water to form a suspension. The suspension was stirred for 7 days at room temperature and then XRPD characterization analysis was performed.

[4] = repetition of prior art forms and test of their properties (stability in water, phase stability); details: prior art processes repeated by the inventors; competitive stability test in water
Excerpt: The above properties may lead to problems in their pharmaceutical formulations, including variations in active substance content, poor reproducibility, impurities increasing during storage, efficacy decreasing, and so on. Moreover, the known canagliflozin is amorphous.

Cc1ccc([C@@H]2O[C@H](CO)[C@@H](O)[C@H](O)[C@H]2O)cc1Cc1ccc(-c2ccc(F)cc2)s1 [canagliflozin Monohydrate Form HI, canagliflozin monohydrate Form HI]
crystalline form after storage ([1]; desiccator, 10% to 90% RH, 4 months): remained unchanged
crystalline form after competitive stability test in water [2]: maintained its original crystalline form

Cc1ccc([C@@H]2O[C@H](CO)[C@@H](O)[C@H](O)[C@H]2O)cc1Cc1ccc(-c2ccc(F)cc2)s1 [known canagliflozin, (1S)-1,5-anhydro-1-[3-[[5-(4-fluorophenyl)-2-thienyl]methyl]-4-methylphenyl]-D-glucitol]
crystalline form after competitive stability test in water [3]: transformed to canagliflozin Monohydrate Form HII
stability in water / phase stability of repeated prior art forms [4]: not stable in water
crystalline form after storage ([1]; desiccators, relative humidities from 57% to 75%, 1 day): transformed to canagliflozin Monohydrate Form HII
crystalline form after competitive stability test in water [2]: transformed to canagliflozin Monohydrate Form HI

Cc1ccc([C@@H]2O[C@H](CO)[C@@H](O)[C@H](O)[C@H]2O)cc1Cc1ccc(-c2ccc(F)cc2)s1 [Cangaliflozin Form B]
stability in water / phase stability of repeated prior art forms [4]: poor phase stability

Cc1ccc([C@@H]2O[C@H](CO)[C@@H](O)[C@H](O)[C@H]2O)cc1Cc1ccc(-c2ccc(F)cc2)s1 [canagliflozin Monohydrate Form HII]
crystalline form after competitive stability test in water [3]: maintained its original crystalline form
crystalline form after storage ([1]; desiccators, relative humidities from 57% to 75%, continued storage for 4 months): remained unchanged

Cc1ccc([C@@H]2O[C@H](CO)[C@@H](O)[C@H](O)[C@H]2O)cc1Cc1ccc(-c2ccc(F)cc2)s1 [canagliflozin Form A]
crystalline form after competitive stability test in water [3]: transformed to canagliflozin Monohydrate Form HII
stability in water / phase stability of repeated prior art forms [4]: not stable in water
crystalline form after competitive stability test in water [2]: transformed to canagliflozin Monohydrate Form HI

Cc1ccc([C@@H]2O[C@H](CO)[C@@H](O)[C@H](O)[C@H]2O)cc1Cc1ccc(-c2ccc(F)cc2)s1.O [canagliflozin hemihydrate Form hH1]
crystalline form after competitive stability test in water [3]: transformed to canagliflozin Monohydrate Form HII
stability in water / phase stability of repeated prior art forms [4]: poor phase stability
crystalline form after competitive stability test in water [2]: transformed to canagliflozin Monohydrate Form HI
